Assay results: patent US11939319B2, “Pyridinyl and pyrazinyl-(asa)indolsulfonamides” (UCB Pharma GmbH, priority 2018, dated 2024)

biological target: GPR17 (Homo sapiens, UniProt Q13304); assay: cAMP accumulation functional assay (HTRF) in CHO hGPR17 cells; type: cell-based; design: host or cells: Flp-In T-REx CHO cells, expression induced with doxycycline; settings: Schild analysis against MDL29,951, 5 μM forskolin, activity range, read-out: cAMP assay pA2 (converted)
Procedure: Flp-In T-REx CHO cells stably expressing human GPR17 receptor (CHO hGPR17) from Evi Kostenis' lab (Bonn University, Germany) were cultured at 37° C. in a humidified atmosphere of 5% CO2. Cells were grown in DMEM with Nutrient Mixture F-12 supplemented with hygromycin B (500 μg/ml) and blasticidin (30 μg/ml). Expression from the Flp-In locus was induced by treatment with doxycycline (1 μg/ml) for 16-20 h prior assays.
GPR17 activation can also recruit Gi-type G-protein signaling, resulting in a decrease of intracellular cyclic adenosine monophosphate (cAMP). Intracellular cAMP changes can be measured using the HTRF cAMP dynamic assay kit from CisBio (Codolet, France). Using homogenous time-resolved fluorescence technology (HTRF), the assay is based on competition between native cAMP produced by cells and cAMP labelled with the dye d2. The tracer binding was determined by an anti-cAMP antibody labeled with cryptate.
CHO hGPR17 were detached with PBS containing EDTA and dispatched in black 384-well plates with 5,000 cells per well. Cells were first incubated for 30 minutes at room temperature in HBSS Hepes (pH 7.4) containing vehicle or varying concentrations of test GPR17 antagonist/inverse agonist compounds. Then, a dose response curve of MDL29,951 GPR17 agonist (typically from 10^−5M to 10^−10M) was added on vehicle and on each test GPR17 antagonist/inverse agonist compound concentration in a final volume of 20 μL HBSS Hepes buffer (pH 7.4) containing 1% DMSO, 5 μM forskolin and 0.1 mM IBMX. After 60 minutes incubation at room temperature, the reaction is terminated and the cells lysed by adding the d2 detection reagent and the cryptate reagent in 10 μL lysis buffer each according to manufacturer's instructions. After 60 minutes incubation, changes in cAMP concentrations are measured according to manufacturer's instructions using an Envision plate reader with laser excitation. All incubations were performed in duplicate. Data was analyzed using GraphPad Prism software using the 4-parameter logistic equation to measure MDL29,951 pEC50s in absence and presence of GPR17 antagonist/inverse agonist test compounds. Dose ratio (DR) were plotted against antagonist concentrations and Schild analysis provided estimated affinity pA2 of GPR17 antagonist/inverse agonist test compounds.
The activities of the Example compounds tested are depicted in the table below. The activity ranges A, B and C refer to pA2 values in the cAMP assay as follows: “A”: pA2 6.5≤x<7.5, “B”: pA2 7.5≤x<8.5, “C”: 8.5≤pA2.

Sequence of GPR17 (Q13304 29-367 limits assumed): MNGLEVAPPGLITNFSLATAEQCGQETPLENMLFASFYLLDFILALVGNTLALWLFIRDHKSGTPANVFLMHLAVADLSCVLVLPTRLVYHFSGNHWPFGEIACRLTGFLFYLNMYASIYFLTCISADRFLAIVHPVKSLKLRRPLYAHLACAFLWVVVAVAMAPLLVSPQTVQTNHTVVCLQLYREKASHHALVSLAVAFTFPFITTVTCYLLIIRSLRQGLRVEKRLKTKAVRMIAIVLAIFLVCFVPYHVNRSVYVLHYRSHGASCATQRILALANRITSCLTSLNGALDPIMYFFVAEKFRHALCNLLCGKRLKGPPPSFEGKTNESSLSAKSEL

SMILES	Kb [nM]
COc1nc(OCC(F)F)ccc1NS(=O)(=O)c1c[nH]c2nc(C(F)F)ccc12 [Example I-53, N-[6-(2,2-difluoroethoxy)-2-methoxypyridin-3-yl]-6-(difluoromethyl)-1H-pyrrolo[2,3-b]pyridine-3-sulfonamide]	3.16 to 31.6
COc1ccc2c(S(=O)(=O)Nc3cc(F)c(OC(F)F)nc3OC)c[nH]c2c1 [Example I-63, N-[6-(difluoromethoxy)-5-fluoro-2-methoxypyridin-3-yl]-6-methoxy-1H-indole-3-sulfonamide]	≤ 3.16
O=S(=O)(Nc1cc(F)c(C2CC2)nc1F)c1c[nH]c2cc(Cl)ccc12 [Example I-41, 6-chloro-N-(6-cyclopropyl-2,5-difluoropyridin-3-yl)-1H-indole-3-sulfonamide]	3.16 to 31.6
O=S(=O)(Nc1cc(F)c(OCC(F)F)nc1F)c1c[nH]c2nc(Cl)ccc12 [Example I-44, 6-chloro-N-[6-(2,2-difluoroethoxy)-2,5-difluoropyridin-3-yl]-1H-pyrrolo[2,3-b]pyridine-3-sulfonamide]	31.6 to 316
COc1nc(OC(F)F)c(F)cc1NS(=O)(=O)c1c[nH]c2c1ccc1cccnc12 [Example I-68, N-[6-(difluoromethoxy)-5-fluoro-2-methoxypyridin-3-yl]-1H-pyrrolo[3,2-h]quinoline-3-sulfonamide]	≤ 3.16
COc1nc(OCCOC(F)F)c(F)cc1NS(=O)(=O)c1c[nH]c2cc(Cl)ccc12 [Example I-43, 6-chloro-N-[6-[2-(difluoromethoxy)ethoxy]-5-fluoro-2-methoxypyridin-3-yl]-1H-indole-3-sulfonamide]	≤ 3.16
COc1ccc(NS(=O)(=O)c2c[nH]c3cc(Cl)ccc23)c(OC)n1 [Example I-61, 6-chloro-N-(2,6-dimethoxypyridin-3-yl)-1H-indole-3-sulfonamide]	31.6 to 316
COc1nc(OCC(F)F)c(F)cc1NS(=O)(=O)c1c[nH]c2nc(C(F)F)ccc12 [Example I-54, N-[6-(2,2-difluoroethoxy)-5-fluoro-2-methoxypyridin-3-yl]-6-(difluoromethyl)-1H-pyrrolo[2,3-b]pyridine-3-sulfonamide]	≤ 3.16
COc1nc(OCC(F)F)c(F)cc1NS(=O)(=O)c1c[nH]c2nc(Cl)ccc12 [Example I-46, 6-chloro-N-[6-(2,2-difluoroethoxy)-5-fluoro-2-methoxypyridin-3-yl]-1H-pyrrolo[2,3-b]pyridine-3-sulfonamide]	≤ 3.16
COc1nc(OCCF)c(F)cc1NS(=O)(=O)c1c[nH]c2cc(Cl)ccc12 [Example I-12, 6-chloro-N-[5-fluoro-6-(2-fluoroethoxy)-2-methoxypyridin-3-yl]-1H-indole-3-sulfonamide]	≤ 3.16
COc1nc(OCC(F)F)c(F)cc1NS(=O)(=O)c1c[nH]c2c1ccc1cccnc12 [Example I-69, N-[6-(2,2-difluoroethoxy)-5-fluoro-2-methoxypyridin-3-yl]-1H-pyrrolo[3,2-h]quinoline-3-sulfonamide]	≤ 3.16
O=S(=O)(Nc1cnc(Cl)cc1Cl)c1c[nH]c2cc(Cl)ccc12 [Example I-26, 6-chloro-N-(4,6-dichloropyridin-3-yl)-1H-indole-3-sulfonamide]	31.6 to 316
Cc1nc(F)c(NS(=O)(=O)c2c[nH]c3nc(C(F)F)ccc23)cc1F [Example I-57, 6-(difluoromethyl)-N-(2,5-difluoro-6-methylpyridin-3-yl)-1H-pyrrolo[2,3-b]pyridine-3-sulfonamide]	3.16 to 31.6
COc1nc(OC(F)F)c(F)cc1NS(=O)(=O)c1c[nH]c2cc(Cl)ccc12 [Example I-9, 6-chloro-N-[6-(difluoromethoxy)-5-fluoro-2-methoxypyridin-3-yl]-1H-indole-3-sulfonamide]	≤ 3.16
O=S(=O)(Nc1cc(F)c(C2CC2)nc1F)c1c[nH]c2nc(Cl)ccc12 [Example I-47, 6-chloro-N-(6-cyclopropyl-2,5-difluoropyridin-3-yl)-1H-pyrrolo[2,3-b]pyridine-3-sulfonamide]	3.16 to 31.6
COc1nc(Cl)ccc1NS(=O)(=O)c1c[nH]c2nc(Cl)ccc12 [Example I-35, 6-chloro-N-(6-chloro-2-methoxypyridin-3-yl)-1H-pyrrolo[2,3-b]pyridine-3-sulfonamide]	31.6 to 316

SMILES	Kb [nM]
COc1nc(OC(F)F)c(F)cc1NS(=O)(=O)c1c[nH]c2cc(C#N)ccc12 [Example I-66, 6-cyano-N-[6-(difluoromethoxy)-5-fluoro-2-methoxypyridin-3-yl]-1H-indole-3-sulfonamide]	≤ 3.16
COc1nc(Cl)c(F)cc1NS(=O)(=O)c1c[nH]c2nc(C(F)F)ccc12 [Example I-29, N-(6-chloro-5-fluoro-2-methoxypyridin-3-yl)-6-(difluoromethyl)-1H-pyrrolo[2,3-b]pyridine-3-sulfonamide]	3.16 to 31.6
COc1nc(OCC(F)F)ccc1NS(=O)(=O)c1c[nH]c2cc(Cl)ccc12 [Example I-38, 6-chloro-N-[6-(2,2-difluoroethoxy)-2-methoxypyridin-3-yl]-1H-indole-3-sulfonamide]	≤ 3.16
COc1nc(OCC(F)F)c(F)cc1NS(=O)(=O)c1c[nH]c2cc(C#N)ccc12 [Example I-65, 6-cyano-N-[6-(2,2-difluoroethoxy)-5-fluoro-2-methoxypyridin-3-yl]-1H-indole-3-sulfonamide]	3.16 to 31.6
COc1cc(OC(F)F)ncc1NS(=O)(=O)c1c[nH]c2cc(Cl)ccc12 [Example I-40, 6-chloro-N-[6-(difluoromethoxy)-4-methoxypyridin-3-yl]-1H-indole-3-sulfonamide]	3.16 to 31.6
COc1nc(OC)c(NS(=O)(=O)c2c[nH]c3nc(C(F)F)ccc23)cc1F [Example I-56, 6-(difluoromethyl)-N-(5-fluoro-2,6-dimethoxypyridin-3-yl)-1H-pyrrolo[2,3-b]pyridine-3-sulfonamide]	3.16 to 31.6
COc1nc(OCC(F)F)c(F)cc1NS(=O)(=O)c1c[nH]c2cc(Cl)ccc12 [Example I-42, 6-chloro-N-[6-(2,2-difluoroethoxy)-5-fluoro-2-methoxypyridin-3-yl]-1H-indole-3-sulfonamide]	≤ 3.16
O=S(=O)(Nc1cc(F)c(OCC(F)F)nc1F)c1c[nH]c2nc(C(F)F)ccc12 [Example I-30, N-[6-(2,2-difluoroethoxy)-2,5-difluoro-3-pyridyl]-6-(difluoromethyl)-1H-pyrrolo[2,3-b]pyridine-3-sulfonamide]	31.6 to 316
COc1nc(OCCF)ccc1NS(=O)(=O)c1c[nH]c2cc(Cl)ccc12 [Example I-13, 6-chloro-N-[6-(2-fluoroethoxy)-2-methoxypyridin-3-yl]-1H-indole-3-sulfonamide]	3.16 to 31.6
COc1nc(Cl)cnc1NS(=O)(=O)c1c[nH]c2cc(Cl)ccc12 [Example I-11, 6-chloro-N-(5-chloro-3-methoxypyrazin-2-yl)-1H-indole-3-sulfonamide]	≤ 3.16
COc1nc(Cl)ccc1NS(=O)(=O)c1c[nH]c2cc(C(F)F)ccc12 [Example I-27, N-(6-chloro-2-methoxypyridin-3-yl)-6-(difluoromethyl)-1H-indole-3-sulfonamide]	31.6 to 316
COc1ncc(F)cc1NS(=O)(=O)c1c[nH]c2nc(Cl)ccc12 [Example I-49, 6-chloro-N-(5-fluoro-2-methoxypyridin-3-yl)-1H-pyrrolo[2,3-b]pyridine-3-sulfonamide]	31.6 to 316
COc1nc(OC(F)F)c(F)cc1NS(=O)(=O)c1c[nH]c2nc(Cl)ccc12 [Example I-22, 6-chloro-N-[6-(difluoromethoxy)-5-fluoro-2-methoxypyridin-3-yl]-1H-pyrrolo[2,3-b]pyridine-3-sulfonamide]	≤ 3.16
O=S(=O)(Nc1cc(F)c(OCC(F)F)nc1F)c1c[nH]c2cc(Cl)ccc12 [Example I-67, 6-chloro-N-[6-(2,2-difluoroethoxy)-2,5-difluoropyridin-3-yl]-1H-indole-3-sulfonamide]	≤ 3.16
COc1nc(OC(F)F)ccc1NS(=O)(=O)c1c[nH]c2nc(Cl)ccc12 [Example I-37, 6-chloro-N-[6-(difluoromethoxy)-2-methoxy-3-pyridyl]-1H-pyrrolo[2,3-b]pyridine-3-sulfonamide]	3.16 to 31.6
COc1nc(OCCF)c(F)cc1NS(=O)(=O)c1c[nH]c2nc(C(F)F)ccc12 [Example I-55, 6-(difluoromethyl)-N-[5-fluoro-6-(2-fluoroethoxy)-2-methoxypyridin-3-yl]-1H-pyrrolo[2,3-b]pyridine-3-sulfonamide]	3.16 to 31.6
